Columns and labels:
AR = target: T1, AR (Homo sapiens, UniProt P10275); assay type: cell-based; conditions: VCaP cells, 24 hours
T1 construct: The VCaP cells were transfected with MMTV-LUC for 24 hours; endogenous in cells; host or cells: VCaP
T1 sequence (P10275 1-920): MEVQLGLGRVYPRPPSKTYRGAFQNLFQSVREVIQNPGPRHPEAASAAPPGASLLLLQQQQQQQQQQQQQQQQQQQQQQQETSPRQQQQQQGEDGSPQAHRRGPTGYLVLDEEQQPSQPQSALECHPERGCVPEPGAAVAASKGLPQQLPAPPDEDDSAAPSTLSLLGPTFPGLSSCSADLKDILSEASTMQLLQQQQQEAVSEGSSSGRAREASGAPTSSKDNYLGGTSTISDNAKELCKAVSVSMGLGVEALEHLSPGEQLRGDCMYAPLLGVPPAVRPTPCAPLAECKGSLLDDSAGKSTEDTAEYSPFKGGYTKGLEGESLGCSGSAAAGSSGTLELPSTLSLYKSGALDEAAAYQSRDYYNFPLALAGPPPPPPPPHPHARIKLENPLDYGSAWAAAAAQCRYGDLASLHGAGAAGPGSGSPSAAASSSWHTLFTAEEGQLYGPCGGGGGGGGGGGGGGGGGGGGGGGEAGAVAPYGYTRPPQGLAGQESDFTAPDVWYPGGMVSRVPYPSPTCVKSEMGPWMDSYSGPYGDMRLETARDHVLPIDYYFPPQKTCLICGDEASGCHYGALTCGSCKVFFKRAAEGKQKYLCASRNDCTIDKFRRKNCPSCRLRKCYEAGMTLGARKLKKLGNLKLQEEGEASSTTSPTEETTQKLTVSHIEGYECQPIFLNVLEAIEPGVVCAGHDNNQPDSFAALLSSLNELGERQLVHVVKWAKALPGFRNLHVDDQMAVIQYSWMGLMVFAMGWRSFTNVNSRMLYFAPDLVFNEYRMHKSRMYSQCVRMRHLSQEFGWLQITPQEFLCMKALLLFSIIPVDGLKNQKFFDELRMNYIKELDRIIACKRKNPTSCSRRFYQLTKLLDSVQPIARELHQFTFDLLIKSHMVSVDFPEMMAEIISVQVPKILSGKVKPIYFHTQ
Experimental: RNA expression level was analyzed by qRT-PCR and protein expression level was analyzed by Western blot. […] (I) Representative immunofluorescence microscopic images of VCaP cells for checking the subcellular localization of AR.
To evaluate the HDAC6 inhibition ability of Zeta55 in VCaP cells, the acetylation status of α-tubulin protein (a HDAC6 substrate) was assessed using western blot. […] We assessed the protein level of AR in VCaP cells.
The whole-cell extracts were prepared in lysis buffer with a protease inhibitor cocktail (Bimake), while the xenograft tissue extracts were prepared in 0.5% Nonidet P 40 Substitute solution (Biosharp) with cocktail protease inhibitor (Bimake). Each sample containing 30 μg of total protein was loaded onto 10% SDS-PAGE and electrotransferred onto polyvinylidene fluoride membranes. The membranes were blocked with 5% skimmed milk in PBST at room temperature for 2 hours and incubated with primary antibodies at 4° C overnight. After the membranes were washed with PBST three times, they were incubated with horseradish peroxidase-conjugated anti-rabbit or anti-mouse secondary antibody at room temperature for 1 hour. Chemiluminescent detection was performed with WesternBright ECL (Advansta). The immunoblots were visualized using the FluorChem FC3 system (ProteinSimple).

HDAC6 = target: T2, HDAC6 (Homo sapiens, UniProt Q9UBN7); assay: fluorescent-based HDAC assay; assay type: biochemical; set-up: purchased BPS Bioscience
T2 sequence (Q9UBN7 1-1215): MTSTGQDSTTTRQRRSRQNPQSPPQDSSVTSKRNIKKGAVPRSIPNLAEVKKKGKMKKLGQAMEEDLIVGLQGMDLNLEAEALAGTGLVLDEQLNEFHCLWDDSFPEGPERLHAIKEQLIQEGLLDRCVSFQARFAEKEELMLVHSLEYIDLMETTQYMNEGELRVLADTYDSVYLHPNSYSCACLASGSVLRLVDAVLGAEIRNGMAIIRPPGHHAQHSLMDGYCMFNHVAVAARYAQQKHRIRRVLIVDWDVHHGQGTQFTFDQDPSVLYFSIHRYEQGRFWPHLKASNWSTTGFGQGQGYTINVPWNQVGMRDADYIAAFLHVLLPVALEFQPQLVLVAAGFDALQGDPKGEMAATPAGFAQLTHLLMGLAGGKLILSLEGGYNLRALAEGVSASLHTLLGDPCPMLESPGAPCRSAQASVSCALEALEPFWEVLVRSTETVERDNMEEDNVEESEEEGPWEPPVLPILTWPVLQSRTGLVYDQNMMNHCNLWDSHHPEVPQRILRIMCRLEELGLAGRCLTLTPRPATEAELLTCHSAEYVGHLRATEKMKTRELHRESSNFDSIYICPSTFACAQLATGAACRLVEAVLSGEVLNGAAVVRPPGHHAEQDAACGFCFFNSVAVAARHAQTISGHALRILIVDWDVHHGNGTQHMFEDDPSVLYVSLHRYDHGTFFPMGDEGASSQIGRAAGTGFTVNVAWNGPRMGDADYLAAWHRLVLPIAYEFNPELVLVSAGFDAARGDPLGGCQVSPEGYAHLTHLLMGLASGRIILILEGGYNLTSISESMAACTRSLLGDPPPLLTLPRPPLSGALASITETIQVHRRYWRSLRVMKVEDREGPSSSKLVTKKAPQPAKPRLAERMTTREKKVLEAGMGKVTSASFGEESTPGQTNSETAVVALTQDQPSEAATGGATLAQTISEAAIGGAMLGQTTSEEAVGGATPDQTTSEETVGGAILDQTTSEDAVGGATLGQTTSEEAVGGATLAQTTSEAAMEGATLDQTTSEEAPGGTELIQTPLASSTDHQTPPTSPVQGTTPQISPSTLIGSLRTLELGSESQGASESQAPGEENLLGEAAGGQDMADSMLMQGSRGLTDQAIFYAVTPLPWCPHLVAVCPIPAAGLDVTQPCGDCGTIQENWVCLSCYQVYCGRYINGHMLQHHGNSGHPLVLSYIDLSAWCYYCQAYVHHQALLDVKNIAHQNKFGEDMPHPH
Experimental: Commercial fluorescent assay kits were used to measure the activities of HDAC (BPS Bioscience). Briefly, the tested compounds were diluted in DMSO into a 96-well plate, and then assay buffer, HDAC, and substrate were added. The plate was incubated at 37° C for 30 minutes for enzymatic reactions, and the developer was added. After 10 minutes of incubation, the generated fluorescence was measured at an excitation of 380 nm and an emission of 460 nm.

HEK293 cells = assay: cell proliferation assay; assay type: cell-based; conditions: Homo sapiens, HEK293, 72 h, read-out: IC50 values proliferation HEK293
HSP90, HSP60, HSP70 = assay: expression levels of heat shock proteins; assay type: cell-based
DU145 cells = assay: cell proliferation assay; assay type: cell-based; conditions: Homo sapiens, DU-145, 72 h, read-out: IC50 values proliferation DU145

N#Cc1ccc(N2C(=O)C3(CCC3)N(c3ccc(C(=O)NO)c(F)c3)C2=S)cc1C(F)(F)F [Zeta55]
AR protein level (AR): decreased AR protein level in a dose-dependent manner
IC50 (HDAC6): 0.98 µM
selectivity for HDAC6 over other HDACs tested (HDAC6; over HDAC1, 2, 3, 4): > 20 folds
IC50 (HEK293 cells): > 50 µM
expression levels of HSP70 (HSP90, HSP60, HSP70): slightly up-regulated
expression levels of HSP90 and HSP60 (HSP90, HSP60, HSP70): did not influence
IC50 (DU145 cells): 45.7 µM

From publication PMC7993727, “Discovery of a novel AR/HDAC6 dual inhibitor for prostate cancer treatment” (Aging (Albany NY), 2021)
